In paper PMC10089987, “The lipoxygenase OsLOX10 affects seed longevity and resistance to saline-alkaline stress during rice seedlings” (Plant Molecular Biology, 2023):

Biological target: T1, LOX10 (OsLOX10) (Oryza sativa, UniProt B7EMC8)
T1 construct: full-length CDS (2607 bp, 868 aa) in pET28a(+), His tag, E. coli BL21(DE3) lysate supernatant, about 98 kDa plus tag (band at 100 kDa)
Assay: KI-I2 starch staining (colour)
Assay type: biochemical
Settings: E. coli lysate supernatant with recombinant LOX10, 0.5 µg protein/µl and dilutions; controls pET28a(+) supernatant and PBS

T1 sequence (B7EMC8 1-868): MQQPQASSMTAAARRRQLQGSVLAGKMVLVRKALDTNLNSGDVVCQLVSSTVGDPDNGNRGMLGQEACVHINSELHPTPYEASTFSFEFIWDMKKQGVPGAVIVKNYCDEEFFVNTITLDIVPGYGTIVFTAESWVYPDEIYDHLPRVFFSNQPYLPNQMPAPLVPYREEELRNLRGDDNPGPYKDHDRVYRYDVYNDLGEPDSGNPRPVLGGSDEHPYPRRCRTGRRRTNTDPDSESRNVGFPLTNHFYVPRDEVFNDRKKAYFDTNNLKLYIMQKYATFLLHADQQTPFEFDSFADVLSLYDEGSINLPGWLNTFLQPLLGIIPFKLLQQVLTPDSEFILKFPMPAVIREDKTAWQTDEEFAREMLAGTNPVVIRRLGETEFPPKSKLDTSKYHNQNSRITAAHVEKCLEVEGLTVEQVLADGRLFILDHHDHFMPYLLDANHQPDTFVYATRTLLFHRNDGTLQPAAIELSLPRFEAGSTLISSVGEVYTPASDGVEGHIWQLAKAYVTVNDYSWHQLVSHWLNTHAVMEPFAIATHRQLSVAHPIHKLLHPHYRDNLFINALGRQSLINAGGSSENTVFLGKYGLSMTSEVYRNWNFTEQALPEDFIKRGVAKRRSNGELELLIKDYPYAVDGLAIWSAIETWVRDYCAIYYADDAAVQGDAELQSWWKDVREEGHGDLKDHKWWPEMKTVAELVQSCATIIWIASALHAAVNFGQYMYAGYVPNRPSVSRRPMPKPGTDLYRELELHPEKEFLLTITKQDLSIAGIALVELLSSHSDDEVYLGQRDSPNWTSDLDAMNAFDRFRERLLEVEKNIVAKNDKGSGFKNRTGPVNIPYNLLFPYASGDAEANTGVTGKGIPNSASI

CCCCC/C=C\C/C=C\CCCCCCCC(=O)O [LA, linoleic acid]
KI-I2 starch staining (colour): The KI-I2 staining showed that LOX10 could metabolize the substrate LA to produce starch
